Consider ten compounds from article PMC6308302, “Identification of Pharmacokinetic Markers for Guanxin Danshen Drop Pills in Rats by Combination of Pharmacokinetics, Systems Pharmacology, and Pharmacodynamic Assays” (Frontiers in Pharmacology, 2018).

The structures appear in SMILES notation. Entries after “also recorded” stand apart in the source; their conditions may differ. Marks after values point to notes of the source that are not given here. Bounds are passed on as bounds.

In one data set the test system is Caco-2 cell monolayers. The note with it: ref Lu et al., 2008, Liu et al., 2009, Hu et al., 2014, Bowles et al., 2017, cited from earlier work; for Papp(apical→basolateral) / Papp(basolateral→apical): Caco-2 cell monolayers, from literature; for apparent permeability in Caco-2 cell monolayers: previous results. A general note: Caco-2 cells form a polarised layer with tight junctions and transporters.

The nature of data set [1]: Aqueous solubility test (vortexing in water). As to conditions: for solubility at 5 min: thermodynamic from solid, determined, water, 25 °C, 1 atm. The format is physicochemical. How it is done: Aqueous solubility (S) test of the 17 ingredients was performed by vortexing 10 mg of each ingredient in […] water in a test tube at ambient temperature and 1 atm. After vortexing for 5 min, if the solution is clear, the tested object will be considered as soluble in water. In silico assessment of the physicochemical properties governing permeation and intestinal absorption was carried out for the 17 ingredients studied. Theory aqueous solubility (S) was calculated with ALOGPS 2.1 online software via the Virtual Computational Chemistry Laboratory service (Chemoinformatics Group, Neuherberg, Germany) (VCCLAB^1). The octanol–water partition coefficient (cLogP), the total hydrogen bond count (donors and acceptors), and topological polar surface area (TPSA) were determined using the Molinspiration Property Calculator (Molinspiration Cheminformatics, Bratislava, Slovak Republic^2). Lipinski’s rule of 5 was used to predict the permeability of the compound ([Lipinski et al., 2001]).

Data set [2] in a line: Multiple component PK study in rat plasma after p.o. GDDP (HPLC-MS). The note with it: for detection in rat plasma: at 5, 10, 15, 30, 45, or 60 min, LOD 0.5–0.7 ng/mL; for AUC(0-inf) / AUC(0-t) / MRT inf / MRT last / Tmax / Cmax / half-life: Sprague-Dawley, rat, plasma, po.
Data set [3] in a line: Stability tests in rat plasma (QC samples, HPLC-MS). As to conditions: n=5.
Description: Accuracy and precision were expressed by relative error (RE) and coefficient of variance (RSD), respectively.
In data set [4] the test system is isoprenaline-induced MI in mice. In words: In vivo anti-MI study: isoprenaline-induced myocardial injury (ECG, H&E histology).
Where [5] appears, read: 24h in auto-sampler vials, spiked 2 ng/mL.
[6] abbreviates: 24h in auto-sampler vials, spiked 400 ng/mL.
Where [7] appears, read: 24h in auto-sampler vials, spiked 1600 ng/mL.
[8] abbreviates: Placing plasma for 6h at 4°C, spiked 2 ng/mL.
The mark [9] stands for this setting: Placing plasma for 6h at 4°C, spiked 400 ng/mL.
[10] abbreviates: Placing plasma for 6h at 4°C, spiked 1600 ng/mL.
Where [11] appears, read: three freeze-thaw cycles, rat plasma, spiked 2 ng/mL.
The mark [12] stands for this setting: three freeze-thaw cycles, rat plasma, spiked 400 ng/mL.
The mark [13] stands for this setting: three freeze-thaw cycles, rat plasma, spiked 1600 ng/mL.

`O=C(O)/C=C/c1ccc(O)c(O)c1` [CA, caffeic acid]: in the data set on Caco-2 cell monolayers, the “Papp(apical→basolateral)” value is on record as 4.35^b ×10^-6 cm/s, the “Papp(basolateral→apical)” value is given as 7.74^b ×10^-6 cm/s and the “apparent permeability in Caco-2 cell monolayers” value (“apparent permeability” for short) was ≥ 10^-6 cm/s. The solubility – broadly, the dissolved amount per volume that the medium holds – at 5 min in data set [1] is above 10000 µg/mL.

As to `C[C@H]1COC2=C1C(=O)C(=O)c1c2ccc2c1CCCC2(C)C` [CTS, cryptotanshinone], the “determination in rat plasma at the planned successive PK time points” value in data set [2] (GDDP 0.8 g/kg p.o., 5, 10, 15, 30, 45, 60, and 120 min, LOQ 1.0–1.4 ng/mL) is recorded as “could be determined”. The “detection in rat plasma” value in data set [2] (GDDP 0.8 g/kg p.o.) is listed as “could be detected”. Also, the results for the AUC(0-inf) in data set [2] (0.4 g/kg) and in data set [2] (0.8 g/kg) were 1.72 ± 1.24 ng·h/mL and 3.24 ± 1.09 ng·h/mL, respectively. For the same compound, the AUC(0-t) – broadly, the area under the concentration-time curve up to a stated or last time point – in data set [2] (0.4 g/kg) came to 0.84 ± 0.03 ng·h/mL; in data set [2] (0.8 g/kg), 2.76 ± 1.18 ng·h/mL. Further, the MRT inf (usually a mean duration of stay, worked out from the concentration-time curve) in data set [2] (0.4 g/kg) was 41.4 ± 39.6 min; in data set [2] (0.8 g/kg), 50.4 ± 18 min. The figures for the MRT last in data set [2] (0.4 g/kg) and in data set [2] (0.8 g/kg) were 13.8 ± 1.8 min and 33.6 ± 13.2 min, respectively. Moreover, the Tmax in data set [2] (0.4 g/kg) and in data set [2] (0.8 g/kg) was 15 min in each case. Also, the Cmax – broadly, the peak of the concentration-time curve – was 2.33 ± 0.49 ng/mL in data set [2] (0.4 g/kg, Cmax, rat plasma, GDDP 0.4 g/kg p.o. (Low dose group), n=3); below 10 ng/mL in data set [2] (0.8 g/kg, Cmax (high / low plasma drug concentrations), rats, GDDP 0.4 and 0.8 g/kg p.o., classification); 4.09 ± 1.47 ng/mL in data set [2] (0.8 g/kg, Cmax, rat plasma, GDDP 0.8 g/kg p.o. (High dose group), n=3). In addition, the half-life (as a rule, the time needed for the level to fall by half in the phase considered) was 27 ± 27 min in data set [2] (0.4 g/kg, t1/2 β, rat plasma, GDDP 0.4 g/kg p.o. (Low dose group), n=3); below 120 min in data set [2] (0.8 g/kg, t1/2 β (fast / slow elimination type), rats, GDDP 0.4 and 0.8 g/kg p.o., classification); 34.2 ± 15.6 min in data set [2] (0.8 g/kg, t1/2 β, rat plasma, GDDP 0.8 g/kg p.o. (High dose group), n=3). Also, the Cltot in data set [2] (rat plasma, GDDP 0.4 g/kg p.o. (Low dose group), n=3) was 209.12 ± 151.07 L/h/kg; in data set [2] (rat plasma, GDDP 0.8 g/kg p.o. (High dose group), n=3) it was 175.44 ± 49.57 L/h/kg. In addition, in the data set with Caco-2 cell monolayers, the “Papp(apical→basolateral)” value is given as 1.59^d ×10^-6 cm/s. For the same compound, in the data set with Caco-2 cell monolayers, the “Papp(basolateral→apical)” value was 8.36^d ×10^-6 cm/s. The “apparent permeability” value with Caco-2 cell monolayers is reported as ≥ 10^-6 cm/s. For the same compound, the “Stability: Measured” value came to 1.79 ± 0.36 ng/mL in data set [3] (setting [5]); 478.43 ± 27.22 ng/mL in data set [3] (setting [6]); 1852.38 ± 164.86 ng/mL in data set [3] (setting [7]); 1.79 ± 0.26 ng/mL in data set [3] (setting [8]); 438.37 ± 50.69 ng/mL in data set [3] (setting [9]); 1890.21 ± 223.22 ng/mL in data set [3] (setting [10]). In addition, the “Stability: Measured” value came to 1.62 ± 0.22 ng/mL in data set [3] (setting [11]), 457.79 ± 26.04 ng/mL in data set [3] (setting [12]) and 1871.43 ± 321.89 ng/mL in data set [3] (setting [13]). For the same compound, the “Stability: RE” value in data set [3] (setting [5]) is reported as -10.32%; in data set [3] (setting [6]), 19.61%; in data set [3] (setting [7]), 15.77%; in data set [3] (setting [8]), -10.47%; in data set [3] (setting [9]), 9.59%; in data set [3] (setting [10]), 18.14%. Besides, the results for the “Stability: RE” value in data set [3] (setting [11]), in data set [3] (setting [12]) and in data set [3] (setting [13]) were -19.00%, 14.45% and 16.96%, respectively. The “solubility in water (in words)” value in data set [1] (water at 25 °C) is listed as “insoluble”. The “Histopathology of heart tissue (H&E)” value in data set [4] (40 mg/kg p.o. for 7 days, isoprenaline-induced MI, 40 mg/kg) is “remarkably severe histological damage with extensive myocardial lysis and architecture wrecking; also recorded: extremely severe histological damage with extensive myocardial lysis and architecture wrecking”. In data set [4] (40 mg/kg p.o., isoprenaline 5 mg/kg on days 4 and 5), the “ECG (lead II) findings on the fifth day of the trial” value is on record as “T waves reversed or decreased”.

For the compound `O=C(O)C(O)Cc1ccc(O)c(O)c1` (stereo not drawn) [DSS, danshensu], in data set [2] (GDDP 0.4 and 0.8 g/kg B.W.), the “detection in rat plasma at more than 15 min after administration” value was “could not be detected”. The “detection in rat plasma” value in data set [2] (GDDP 0.8 g/kg p.o.) is “could be detected”. The plasma level in data set [2] (rats, GDDP 0.4 and 0.8 g/kg, more than 15 min after administration, below LOD) is listed as below 0.5 ng/mL. Besides, the solubility at 5 min in data set [1] is above 10000 µg/mL.

For `O=C(/C=C/c1ccc(O)c2c1[C@H](C(=O)O)[C@@H](c1ccc(O)c(O)c1)O2)O[C@H](Cc1ccc(O)c(O)c1)C(=O)O` [LA, lithospermic acid], in the data set on Caco-2 cell monolayers, the “Papp(apical→basolateral)” value is recorded as 0.0816^a ×10^-6 cm/s and the “Papp(basolateral→apical)” value was 0.0413^a ×10^-6 cm/s. Moreover, the solubility at 5 min in data set [1] was above 10000 µg/mL.

`O=C(O)c1ccc(O)c(O)c1` [PCA, protocatechuic acid]: the “detection in rat plasma” value in data set [2] (GDDP 0.8 g/kg p.o.) is “could be detected”. In the data set on Caco-2 cell monolayers, the “Papp(apical→basolateral)” value is reported as 4.52^b ×10^-6 cm/s, the “Papp(basolateral→apical)” value is 6.91^b ×10^-6 cm/s and the “apparent permeability” value was ≥ 10^-6 cm/s. For the same compound, in data set [1], the solubility at 5 min was above 10000 µg/mL.

As to `O=Cc1ccc(O)c(O)c1` [PCAL, protocatechuic aldehyde], in data set [2] (GDDP 0.8 g/kg p.o.), the “detection in rat plasma” value is “could be detected”. Moreover, in the data set on Caco-2 cell monolayers, the “Papp(apical→basolateral)” value was 12.1^a ×10^-6 cm/s, the “Papp(basolateral→apical)” value is given as 21.8^a ×10^-6 cm/s and the “apparent permeability” value was ≥ 10^-6 cm/s. The compound further gave a solubility at 5 min in data set [1] above 10000 µg/mL.

With `O=C(/C=C/c1ccc(O)c(O)c1)O[C@H](Cc1ccc(O)c(O)c1)C(=O)O` [RA, rosmarinic acid], in the data set on Caco-2 cell monolayers, the “Papp(apical→basolateral)” value is listed as 0.523^a ×10^-6 cm/s and the “Papp(basolateral→apical)” value is given as 0.550^a ×10^-6 cm/s. For the same compound, the solubility at 5 min in data set [1] is above 10000 µg/mL.

For the compound `CC(C)=CCC[C@](C)(O[C@@H]1O[C@H](CO)[C@@H](O)[C@H](O)[C@H]1O)[C@H]1CC[C@]2(C)[C@@H]1[C@H](O)C[C@@H]1[C@@]3(C)CC[C@H](O)C(C)(C)[C@@H]3[C@@H](O[C@@H]3O[C@H](CO)[C@@H](O)[C@H](O)[C@H]3O[C@@H]3O[C@@H](C)[C@H](O)[C@@H](O)[C@H]3O)C[C@]12C` [Re, ginsenoside Re], the “detection in rat plasma” value in data set [2] (GDDP 0.8 g/kg p.o.) was “could be detected”. For the same compound, in the data set on Caco-2 cell monolayers, the “Papp(apical→basolateral)” value is listed as > 0.1^c ×10^-6 cm/s and the “Papp(basolateral→apical)” value is listed as > 0.1^c ×10^-6 cm/s. For the same compound, the solubility at 5 min in data set [1] was above 10000 µg/mL.

In the case of `O=C(/C=C/c1ccc(O)c(O)c1/C=C/c1ccc(O)c(O)c1)OC(Cc1ccc(O)c(O)c1)C(=O)O` (stereo not drawn) [SAA, SA A], in the data set on Caco-2 cell monolayers, the “Papp(apical→basolateral)” value is listed as 0.0595^a ×10^-6 cm/s and the “Papp(basolateral→apical)” value is recorded as 0.0554^a ×10^-6 cm/s. The solubility at 5 min in data set [1] was above 10000 µg/mL.

`O=C(/C=C/c1ccc(O)c2c1C(C(=O)OC(Cc1ccc(O)c(O)c1)C(=O)O)C(c1ccc(O)c(O)c1)O2)OC(Cc1ccc(O)c(O)c1)C(=O)O` (stereo not drawn) [SAB, SA B]: in the data set with Caco-2 cell monolayers, the “Papp(apical→basolateral)” value is 0.0200^a ×10^-6 cm/s and the “Papp(basolateral→apical)” value is given as 0.0377^a ×10^-6 cm/s. The compound also yielded a solubility at 5 min in data set [1] above 10000 µg/mL.
